# From US8551951B2, “Pharmaceutical preparations and methods for inhibiting tumors” (Aenorasis SA Pharmaceuticals and Medical Devices, priority 2000, dated 2013)
# Peptide text beside a SMILES is read from it.
# Tests used:
# [1] = tested on: PC-3 cells; experiment: Apoptosis assay by ELISA plus; assay type: cell-based, human; conditions: for apoptotic cell death effect: 22.5 μM to 90 μM, 72 hours
# Protocol: The three polypeptides (SEQ ID NO: 4, SEQ ID NO: 5 and SEQ ID NO 6) and native PSP94 used here as a positive control were tested in ELISA plus assay to measure cell death through apoptosis. Briefly, the ELISA plus assay is a sandwich enzyme immunoassay able to measure mono- and oligonucleosomes present in the cytoplasmic fraction of cell lysate using two antibodies, one directed against DNA and the other directed against histones. The apoptotic cell death is characterized by activation of endogenous endonucleases (e.g., calcium- and magnesium-dependant), which cleave double-stranded DNA at the most accessible internucleosomal linker region, generating mono- and oligonucleosomes. The enrichment of mono- and oligonucleosomes in the cytoplasm of the apoptotic cells is due to the fact that DNA degradation occurs several hours before plasma membrane breakdown.
# Four thousand cells were seeded in Costar 96 well cell culture flat bottom plates in RPMI supplemented media containing 50 μg/ml of bovine serum albumin (BSA) and 0.1 μM FeSO4. The PC-3 cells were treated with various concentrations (22.5 μM to 90 μM) of polypeptides for 72 hours. Apoptosis assay was done as per manufacturer's instructions using the ApopTag kit (Boeringher Mannheim).
# [2] = tested on: PC-3 cells; experiment: [^3H]-Thymidine uptake assay; assay type: cell-based, human; conditions: GMP grade
# Protocol: The in vitro growth inhibition effect of rHuPSP94 was assessed using [^3H]-Thymidine uptake assay. [^3H]-Thymidine uptake assay involves [^3H]-Thymidine incorporation into cellular DNA of actively proliferating cells. It measures the proliferative index of the cells versus the MTS assay, which quantifies the number of lived cells following treatment. Cells were seeded in Costar 96 well cell culture flat bottom plates in RPMI supplemented media containing 50 μg/ml of bovine serum albumin (BSA) and 0.1 μM FeSO4. PC-3 cells were exposed to various concentrations of rHuPSP94 for 72 hours and during the final 16 hours of incubation cells were pulsed with 1 μCi of [^3H]-Thymidine. The radioactivity in each well of the plate is counted by a beta-counter and is expressed as total counts per minutes (cpm). Results of in vitro effect of rHuPSP94 on PC-3 cells using the ^3[H]-Thymidine uptake assay are summarized in Table 3 and are expressed as percentage of radioactivity measured for treated-cells relative to the radioactivity measured for non-treated cells (for which [^3H]-thymidine uptake value was set at 100%).
# [^3H]-Thymidine uptake assay involves [^3H]-Thymidine incorporation into cellular DNA of actively proliferating cells. [^3H]-Thymidine uptake assay measures the proliferative index of the cells versus the MTS assay, which quantifies the number of lived cells following treatment. The anti-proliferative effects of PCK3145 and two other synthetic polypeptides derived from the amino and carboxy terminus ends of PSP94 (SEQ ID NO: 4 and NO: 6, respectively) as well as the decapeptide (SEQ ID NO: 3) previously shown to mimic the biological action of native PSP94 were assessed in [H3]-Thymidine uptake assay on PC-3 cells. Two separate experiments were conducted with GMP-grade PCK3145.
# [3] = tested on: Dunning Mat Ly Lu tumors; experiment: Studies MLL-5 and MLL-6, Mat Ly Lu tumor implanted in Copenhagen rats; assay type: in vivo
# Protocol: Anti-tumor efficacy evaluation of PCK3145 against Mat Ly Lu (MLL) tumor implanted in Copenhagen rats was performed. (Protocol based on S. Garde et al.; The Prostate, 22: 225-233, 1993). Mat LyLu tumor cells were harvested in mid-log phase from the culture flasks by trypsinization, were centrifuged at 1200 rotation per minute (rpm) and washed three timed with Hanks balanced salt solution (HBSS). Following washing, cells were counted and adjusted to a concentration of 5×10^6 cells/ml in HBSS. A 0.1 ml volume of tumor cell inoculum containing 5×10^5 cells was administered subcutaneously into the flank region of each rat. Treatment started at day 3 post-tumor implantation (p.t.i) by local subcutaneous injection (i.e., in the shaved back area just below tumor implantation site) of various PCK3145 concentrations. This treatment was continued daily for 16 days. Experiments were terminated 24 hours after the last treatment. Tumor measurements were taken at days 7, 9, 11, 14, 16 and 18. Tumor volumes are calculated according to formula (a×b^2×0.5), where a—is the length of the long diameter, b—width of the perpendicular small diameter. At day 19 tumors of individual rats were excised and weighed.
# Study No: MLL-5 illustrates the efficacy of PCK3145 (SEQ ID NO: 5) compared with polypeptide 7-21 (SEQ ID NO: 4) and polypeptide 76-94 (SEQ ID NO: 6) in tumor growth retardation in Copenhagen rats, which have received Mat Ly Lu implants. Mice were separated in different groups, each receiving various amount of PCK3145 (SEQ ID NO: 5) or control reagents. PCK3145 was injected through the subcutaneous route. The different groups used in these experiments are illustrated in table 8 below. Each group contained 8 mice.
# Study No: MLL-6 illustrates the efficacy of PCK3145 (SEQ ID NO: 5) in tumor growth retardation in Copenhagen rats, which have received Mat Ly Lu implants. Mice were separated in different group each receiving various amounts of PCK3145 (SEQ ID NO: 5) or control reagents. PCK3145 was injected through the subcutaneous route. The different groups used in these experiments are illustrated in table 9 below. Each group contained 8 mice. Doxorubicin was administered as single bolus via intra-venous injection on day 3 p.t.i.
Compound,apoptotic cell death effect [1],"apoptotic cell death, potency relative to the other polypeptides ([1]; 90 μM)","reduction in [^3H]-Thymidine uptake ([2]; 200 μg/ml, first experiment) [%]","inhibition of [^3H]-Thymidine uptake ([2]; 400 μg/ml, second experiment) [%]","anti-tumor effect (tumor volume), study MLL-5 ([3]; 1 μg/kg/day s.c.)","anti-tumor effect (tumor volume), study MLL-5 ([3]; 10 μg/kg/day s.c., days 11, 13, 16, 18)","tumor volume reduction over control, study MLL-6 ([3]; 100 μg/kg/day s.c., days 14, 16 and 18) [%]","difference in tumor weight between control and treated group, study MLL-6 ([3]; 100 μg/kg/day, day 18 p.t.i) [gram]","tumor weight, study MLL-6 ([3]; 100 μg/kg/day, day 18 p.t.i, control 56.6 g) [g]","reduction in tumor mass, study MLL-6 ([3]; 100 μg/kg/day, day 18 p.t.i, p=0.0003) [%]","anti-tumor effect, study MLL-6 ([3]; 10 and 100 μg/kg/day s.c.)","anti-tumor effect (tumor volume), study MLL-5 ([3]; s.c., days 13, 16, 18, dose not given)"
"C[C@@H](O)[C@H](NC(=O)[C@H](CCC(=O)O)NC(=O)[C@H](Cc1ccc(O)cc1)NC(=O)[C@H](CS)NC(=O)[C@@H](NC(=O)[C@H](CS)NC(=O)[C@@H](NC(=O)[C@H](CCC(=O)O)NC(=O)[C@H](CS)NC(=O)[C@H](CC(N)=O)NC(=O)[C@H](CC(=O)O)NC(=O)[C@@H](NC(=O)[C@H](CCC(N)=O)NC(=O)[C@H](Cc1c[nH]c2ccccc12)NC(=O)[C@@H](N)CCC(=O)O)[C@@H](C)O)[C@@H](C)O)[C@@H](C)O)C(=O)O [PCK3145, EWQTDNCETCTCYET] (H-EWQTDNCETCTCYET-OH; N-terminus and C-terminus assumed)",dose dependent increase in the apoptotic cell death effect,more potent than the other polypeptides,~40,25,No significant effect,significant anti-tumor effect,31,20,37.2,34,significant dose-dependent anti-tumor effect,–
"polypeptide 7-21: PSP94 derived synthetic polypeptide from the amino terminus end, SEQ ID NO: 4 (NEGVPGDSTRKCMDL; Polypeptide 7-21)",dose dependent increase in the apoptotic cell death effect,–,–,–,–,–,–,–,–,–,–,comparable anti-tumor effect
